Test results published in patent US9776972B2, “Pyrazole derivatives as arginine methyltransferase inhibitors and uses thereof” (priority 2013, dated 2017).
Where two headings read alike, the source gives them in different places.

Assays:
human PRMT6 = biological target: T1, human PRMT6 (Homo sapiens, UniProt Q96LA8); test: PRMT6 Biochemical Assay (3H-SAM Flashplate, peptide substrate)
T1 construct: Flag-PRMT6-His; made in house; host or cells: HEK 293F cells (BacMam baculovirus)
Text: (§1) S-adenosylmethionine (SAM), S-adenosylhomocysteine (SAH), bicine, Tween20, dimethylsulfoxide (DMSO), bovine skin gelatin (BSG), sodium butyrate and Tris(2-carboxyethyl)phosphine hydrochloride solution (TCEP) were purchased from Sigma-Aldrich at the highest level of purity possible. ^3H-SAM was purchase from American Radiolabeled Chemicals with a specific activity of 80 Ci/mmol. 384-well streptavidin Flashplates were purchased from PerkinElmer.
Peptide representative of human histone H4 residues 36-50 was synthesized with an N-terminal linker-affinity tag motif and a C-terminal amide cap by 21st Century Biochemicals.
The amplified gene was subcloned into pFastBacMam (Viva Biotech).
Recombinant baculovirus were generated according to Bac-to-Bac kit instructions (Life Technologies). […] Infections were carried out at 37° C. for 48 hours, harvested by centrifugation, and stored at −80° C. for purification.
Column was washed with 20 mM imidazole in the same buffer and Flag-PRMT6-His was eluted with 150 mM imidazole. […] Flag-PRMT6-His was eluted with 200 ug/ml FLAG peptide in the same buffer. Pooled fractions were dialysed in 20 mM Tris, 150 mM NaCl, 10% glycerol and 5 mM β-mercaptoethanol, pH 7.8.
General Procedure for PRMT6 Enzyme Assays on Peptide Substrates.
(§2) The assays were all performed in a buffer consisting of 20 mM Bicine (pH=7.6), 1 mM TCEP, 0.005% BSG, and 0.002% Tween 20, prepared on the day of use. […] DMSO (1 ul) was added to Columns 11, 12, 23, 24, rows A-H for the maximum signal control and 1 ul of SAH, a known product and inhibitor of PRMT6, was added to columns 11, 12, 23, 24, rows I-P for the minimum signal control. A cocktail (40 ul) containing the PRMT6 enzyme was added by Multidrop Combi (Thermo-Fisher). The compounds were allowed to incubate with PRMT6 for 30 min at room temperature, then a cocktail (10 ul) containing SAM and peptide was added to initiate the reaction (final volume=51 ul). […] The assays were stopped by the addition of non-radiolabeled SAM (10 ul) to a final concentration of 400 uM, which dilutes the ^3H-SAM to a level where its incorporation into the peptide substrate is no longer detectable. 50 ul of the reaction in the 384-well polypropylene plate was then transferred to a 384-well Flashplate and the biotinylated peptides were allowed to bind to the streptavidin surface for at least 1 hour before being washed once with 0.1% Tween20 in a Biotek ELx405 plate washer. The plates were then read in a PerkinElmer TopCount plate reader to measure the quantity of ^3H-labeled peptide bound to the Flashplate surface, measured as disintegrations per minute (dpm) or alternatively, referred to as counts per minute (cpm).
(§3) Where dpm=disintegrations per minute, cmpd=signal in assay well, and min and max are the respective minimum and maximum signal controls.
(§4) Where top and bottom are the normally allowed to float, but may be fixed at 100 or 0 respectively in a 3-parameter fit. The Hill Coefficient normally allowed to float but may also be fixed at 1 in a 3-parameter fit. Y is the % inhibition and X is the compound concentration.

[1] = system: mono-methyl arginine in RKO cells; test: RKO Methylation Assay, In Cell Western (ICW) for mono-methyl arginine and DNA content; type: cell-based; settings: Homo sapiens, RKO, 72 h
Text: RKO adherent cells were purchased from ATCC (American Type Culture Collection), Manassas, Va., USA. DMEM/Glutamax medium, penicillin-streptomycin, heat inactivated fetal bovine serum, 0.05% trypsin and D-PBS were purchased from Life Technologies, Grand Island, N.Y., USA. Odyssey blocking buffer, 800CW goat anti-rabbit IgG (H+L) antibody, and Licor Odyssey infrared scanner were purchased from Licor Biosciences, Lincoln, Nebr., USA. Mono-methyl arginine antibody was purchased from Cell Signaling Technology, Danvers, Mass., USA. Methanol was purchased from VWR, Franklin, Mass., USA. 10% Tween 20 was purchased from KPL, Inc., Gaithersburg, Md., USA. DRAQ5 was purchased from Biostatus Limited, Leicestershire, UK.
RKO adherent cells were maintained in growth medium (DMEM/Glutamax medium supplemented with 10% v/v heat inactivated fetal bovine serum and 100 units/mL penicillin-streptomycin) and cultured at 37° C. under 5% CO2.
Cell Treatment, in Cell Western (ICW) for Detection of Mono-Methyl Arginine and DNA Content.
RKO cells were seeded in assay medium at a concentration of 20,000 cells per mL to a poly-D-lysine coated 384 well culture plate (BD Biosciences 356697) with 50 μL per well. Compound (100 nL) from a 96-well source plate was added directly to 384 well cell plate. Plates were incubated at 37° C., 5% CO2 for 72 hours. After three days of incubation, plates were brought to room temperature outside of the incubator for ten minutes and blotted on paper towels to remove cell media. 50 μL of ice cold 100% methanol was added directly to each well and incubated for 30 min at room temperature. After 30 min, plates were transferred to a Biotek EL406 plate washer and washed 2 times with 100 μL per well of wash buffer (1×PBS). Next 60 μL per well of Odyssey blocking buffer (Odyssey Buffer with 0.1% Tween 20 (v/v)) were added to each plate and incubated 1 hour at room temperature. Blocking buffer was removed and 20 μL per well of primary antibody was added (mono-methyl arginine diluted 1:200 in Odyssey buffer with 0.1% Tween 20 (v/v)) and plates were incubated overnight (16 hours) at 4° C. Plates were washed 5 times with 100 μL per well of wash buffer. Next 20 μL per well of secondary antibody was added (1:200 800CW goat anti-rabbit IgG (H+L) antibody, 1:1000 DRAQ5 (Biostatus limited) in Odyssey buffer with 0.1% Tween 20 (v/v)) and incubated for 1 hour at room temperature. The plates were washed 5 times with 100 μL per well wash buffer then 2 times with 100 μL per well of water. Plates were allowed to dry at room temperature then imaged on the Licor Odyssey machine which measures integrated intensity at 700 nm and 800 nm wavelengths. Both 700 and 800 channels were scanned.
First, the ratio for each well was determined by:
Each plate included fourteen control wells of DMSO only treatment (minimum activation) as well as fourteen control wells for maximum activation treated with 20 μM of a reference compound. The average of the ratio values for each control type was calculated and used to determine the percent activation for each test well in the plate. Reference compound was serially diluted three-fold in DMSO for a total of nine test concentrations, beginning at 20 μM. Percent activation was determined and EC30 curves were generated using triplicate wells per concentration of compound.

human PRMT1 = biological target: T2, human PRMT1 (Homo sapiens, UniProt Q99873); test: PRMT1 Biochemical Assay (3H-SAM Flashplate, peptide substrate); settings: single experiment or average of multiple experiments
T2 construct: GST-tagged PRMT1; made in house; host or cells: High Five insect cells (baculovirus)
Text: as §1, with “(BSG),” for “(BSG), sodium butyrate”
Recombinant baculovirus were generated according to Bac-to-Bac kit instructions (Life Technologies). […] Infections were carried out at 27° C. for 48 hours, harvested by centrifugation, and stored at −80° C. for purification.
GST-tagged PRMT1 was eluted with 50 mM Tris, 2 mM glutathione, pH 7.8, dialysed in buffer A and concentrated to 1 mg/mL.
General Procedure for PRMT1 Enzyme Assays on Peptide Substrates.
as §2, with “PRMT1,” for “PRMT6,”, “PRMT1” for “PRMT6”, “300” for “400”
as §3, §4

[2] = Biochemical IC50 PRMT6, single experiment or average of multiple experiments
[3] = RKO cells, 72 hours, mono-methyl arginine, percent activation, single experiment or average of multiple experiments, read-out: EC30 (In Cell Western data, Numerical)
[4] = single experiment or average of multiple experiments, read-out: Biochemical IC50 PRMT6
[5] = RKO cells, 72 hours, mono-methyl arginine, percent activation, class symbols, read-out: EC30 (In Cell Western data)

T1 sequence (Q96LA8 with tags, fused parts or gaps): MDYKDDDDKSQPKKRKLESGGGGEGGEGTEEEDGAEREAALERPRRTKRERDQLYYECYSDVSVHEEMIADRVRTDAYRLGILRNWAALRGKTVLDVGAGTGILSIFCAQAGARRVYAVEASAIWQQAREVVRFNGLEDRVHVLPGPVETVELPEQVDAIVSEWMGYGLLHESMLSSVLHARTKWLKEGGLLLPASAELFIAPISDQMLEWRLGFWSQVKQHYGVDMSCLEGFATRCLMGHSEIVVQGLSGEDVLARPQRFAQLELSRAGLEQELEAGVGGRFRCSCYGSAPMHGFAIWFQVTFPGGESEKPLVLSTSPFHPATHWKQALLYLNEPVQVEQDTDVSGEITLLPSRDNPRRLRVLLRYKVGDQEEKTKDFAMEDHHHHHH
T2 sequence (Q99873 with tags, fused parts or gaps): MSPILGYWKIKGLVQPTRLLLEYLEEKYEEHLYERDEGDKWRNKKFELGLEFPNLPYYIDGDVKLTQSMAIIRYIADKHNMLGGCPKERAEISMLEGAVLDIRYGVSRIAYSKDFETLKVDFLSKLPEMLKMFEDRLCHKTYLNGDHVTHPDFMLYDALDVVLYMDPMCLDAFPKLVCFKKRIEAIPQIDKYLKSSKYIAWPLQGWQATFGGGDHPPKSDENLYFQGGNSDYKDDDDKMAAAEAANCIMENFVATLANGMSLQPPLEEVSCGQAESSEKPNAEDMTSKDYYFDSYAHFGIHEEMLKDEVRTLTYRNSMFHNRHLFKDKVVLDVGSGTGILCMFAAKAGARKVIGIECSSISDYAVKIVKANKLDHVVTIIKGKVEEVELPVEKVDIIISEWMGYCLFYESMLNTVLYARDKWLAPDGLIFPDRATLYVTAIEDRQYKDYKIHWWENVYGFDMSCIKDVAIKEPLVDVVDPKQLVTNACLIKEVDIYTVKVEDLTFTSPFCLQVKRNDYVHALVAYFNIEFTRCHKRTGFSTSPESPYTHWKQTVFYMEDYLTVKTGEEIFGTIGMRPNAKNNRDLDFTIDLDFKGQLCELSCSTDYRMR

Structure (SMILES) | IC50 (human PRMT6; [2]) | EC30 [1, 3] | IC50 (human PRMT6; Biochemical IC50 PRMT6) | other results
CNCCN(C)Cc1c[nH]nc1-c1ccc(OC(C)C)cc1 [Compound 19, N^1-((3-(4-isopropoxyphenyl)-1H-pyrazol-4-yl)methyl)-N^1,N^2-dimethylethane-1,2-diamine] | 10.6 nM | 0.067 µM |  | 
COCCn1cc(CN(C)CCN(C)C)c(-c2ccc(F)cc2)n1 [Compound 61] | > 10000 nM |  | > 10000 nM | 
COCCn1ncc(CN(C)CCN(C)C)c1-c1ccc(F)cc1 [Compound 64] | 1570 nM |  |  | 
CN(CCN)Cc1cn(CC(O)CO)nc1-c1ccc(F)cc1 (stereo not drawn) [Compound 76] | 2730 nM |  |  | IC50 (human PRMT1): 6390 nM
CN(CCN)Cc1cn(CC2COC2)nc1-c1ccc(F)cc1 [Compound 79] | > 10000 nM | > 20 µM | > 10000 nM | 
CN(CCN)Cc1cnn(CC2COC2)c1-c1ccc(F)cc1 [Compound 80] | > 10000 nM | > 20 µM | > 10000 nM | 
CN(CCN)Cc1c(-c2ccc(C#N)cc2)cnn1C [Compound 84] | > 10000 nM |  | > 10000 nM | 
CN(CCN)Cc1cn(CC2CCOCC2)nc1-c1ccc(F)cc1 [Compound 128] | 2370 nM |  |  | IC50 (human PRMT1): 6500 nM
CN(CCN1CCCC1)Cc1c[nH]nc1-c1ccc(C#N)cc1 [Compound 139] | > 10000 nM | > 20 µM | > 10000 nM | 
CN(CCN)Cc1c[nH]nc1-c1ccc(OCCCN2CCOCC2)cc1 [Compound 186] | 13.3 nM | 12.8 µM |  | 
CN(CCN)Cc1c[nH]nc1-c1ccc(N2CCN(C(=O)Cc3ccccc3)CC2)cc1 [Compound 190] |  | 8.39 µM |  | IC50 (human PRMT6; [4]): 20.1 nM
CN(CCN)Cc1c[nH]nc1-c1ccc(Oc2ccccc2)cc1 [Compound 200] |  | 0.596 µM |  | 
CNCCN(C)Cc1cn[nH]c1-c1ccc(OC(C)C)c(Cl)c1 [Compound 201] | 9.24 nM | 0.255 µM |  | 
CNCCN(C)Cc1cnn(C)c1-c1ccc(OC(C)C)c(Cl)c1 [Compound 220, N^1-((5-(3-chloro-4-isopropoxyphenyl)-1-methyl-1H-pyrazol-4-yl)methyl)-N^1,N^2-dimethylethane-1,2-diamine] |  | 0.211 µM |  | IC50 (human PRMT6; [4]): 23.1 nM
COCCn1cnc(-c2ccc(C#N)cc2)c1CN(C)CCN [Compound 223] | > 10000 nM | > 20 µM | > 10000 nM | 
CNCCN(C)Cc1c[nH]nc1-c1ccc(Oc2ccccc2)c(C#N)c1 [Compound 234] | 4.74 nM |  |  | IC50 (human PRMT1): 7.75 nM
CNCCN(C)Cc1c[nH]nc1-c1ccc(Oc2cccc(C(=O)NC)c2)cc1 [Compound 263] | 1.92 nM |  |  | IC50 (human PRMT1): 4.35 nM; EC30 ([1]; read-out: EC30 (In Cell Western data, Numerical, μM)): 1.29 µM
CNCCN(C)Cc1c[nH]nc1-c1ccc(Oc2cccc(C(=O)N(C)C)c2)cc1 [Compound 264] | 3.18 nM | 3.52 µM |  | 
CNCCN(C)Cc1n[nH]cc1-c1ccc(Oc2cccc(C(=O)N(C)C)c2)cc1 [Compound 269] | 2.73 nM | 14.9 µM |  | 
CNCCN(C)Cc1n[nH]cc1-c1ccc(Oc2ccccc2C(=O)NC)cc1 [Compound 278] | 5.17 nM | 8.23 µM |  | 
CCC(CO)Oc1ccc(-c2n[nH]cc2CN(C)CCNC)cc1 (stereo not drawn) [Compound 287] |  | 0.202 µM | < 100 nM | IC50 (human PRMT6; [4]): 24.8 nM; EC30 [1, 5]: < 3 µM
CCOc1ccc(-c2n[nH]cc2CN(C)CCNC)cc1 [Compound 294] | 24.6 nM | 0.224 µM | < 100 nM | EC30 [1, 5]: < 3 µM
